# Results as given in paper PMC7206119, “RIP1 inhibition blocks inflammatory diseases but not tumor growth or metastases” (Cell Death and Differentiation, 2019).
# How the values were obtained:
# Test in all cases: biochemical
# Parameters in all cases: DiscoverX kinase panel, active-site competition binding (KINOMEscan type), percent of control at one concentration
# Conditions in all cases: competition binding, percent of control
# [1] = target: T1, ABL1(T315I)-nonphosphorylated (Homo sapiens, UniProt P00519, T315I)
# T1 construct: nonphosphorylated
# [2] = target: T2, ABL1(Y253F)-phosphorylated (Homo sapiens, UniProt P00519, Y253F)
# T2 construct: phosphorylated
# CAMK2G = CAMK2G (Homo sapiens, UniProt Q13555)
# CDC2L2 = target: T3, CDC2L2 (Homo sapiens, UniProt Q9UQ88)
# T3 construct: gene CDK11A
# CDKL1 = CDKL1 (Homo sapiens, UniProt Q00532)
# EPHA3 = EPHA3 (Homo sapiens, UniProt P29320)
# FES = FES (Homo sapiens, UniProt P07332)
# GSK3B = GSK3B (Homo sapiens, UniProt P49841)
# IRAK1 = IRAK1 (Homo sapiens, UniProt P51617)
# LIMK2 = LIMK2 (Homo sapiens, UniProt P53671)
# MAST1 = MAST1 (Homo sapiens, UniProt Q9Y2H9)
# MLK2 = target: T4, MLK2 (Homo sapiens, UniProt Q02779)
# T4 construct: gene MAP3K10
# NDR1 = target: T5, NDR1 (Homo sapiens, UniProt Q15208)
# T5 construct: gene STK38
# PDPK1 = PDPK1 (Homo sapiens, UniProt O15530)
# PFTK1 = target: T6, PFTK1 (Homo sapiens, UniProt O94921)
# T6 construct: gene CDK14
# [3] = target: T7, RPS6KA5(Kin.Dom.1-N-terminal) (Homo sapiens, UniProt O75582)
# T7 construct: Kin.Dom.1-N-terminal
# SIK = target: T8, SIK (Homo sapiens, UniProt P57059)
# T8 construct: gene SIK1
# SRPK1 = SRPK1 (Homo sapiens, UniProt Q96SB4)
# TAOK3 = TAOK3 (Homo sapiens, UniProt Q9H2K8)
# TNNI3K = TNNI3K (Homo sapiens, UniProt Q59H18)
# p38-delta = target: T9, p38-delta (Homo sapiens, UniProt O15264)
# T9 construct: gene MAPK13
# GSK3B, sequence (P49841 whole entry): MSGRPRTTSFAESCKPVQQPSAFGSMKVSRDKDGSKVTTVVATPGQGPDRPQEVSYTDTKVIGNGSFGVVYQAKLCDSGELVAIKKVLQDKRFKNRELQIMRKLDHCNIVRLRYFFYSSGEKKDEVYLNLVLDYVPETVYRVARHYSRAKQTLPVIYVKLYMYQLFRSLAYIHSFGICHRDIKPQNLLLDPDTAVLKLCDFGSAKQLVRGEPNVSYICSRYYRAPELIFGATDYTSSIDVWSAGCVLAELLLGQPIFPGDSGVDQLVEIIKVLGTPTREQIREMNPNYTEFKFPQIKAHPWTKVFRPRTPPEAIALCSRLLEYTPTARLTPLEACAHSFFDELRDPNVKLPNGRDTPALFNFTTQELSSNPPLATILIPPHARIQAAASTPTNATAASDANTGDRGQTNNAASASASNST
# SRPK1, sequence (Q96SB4 whole entry): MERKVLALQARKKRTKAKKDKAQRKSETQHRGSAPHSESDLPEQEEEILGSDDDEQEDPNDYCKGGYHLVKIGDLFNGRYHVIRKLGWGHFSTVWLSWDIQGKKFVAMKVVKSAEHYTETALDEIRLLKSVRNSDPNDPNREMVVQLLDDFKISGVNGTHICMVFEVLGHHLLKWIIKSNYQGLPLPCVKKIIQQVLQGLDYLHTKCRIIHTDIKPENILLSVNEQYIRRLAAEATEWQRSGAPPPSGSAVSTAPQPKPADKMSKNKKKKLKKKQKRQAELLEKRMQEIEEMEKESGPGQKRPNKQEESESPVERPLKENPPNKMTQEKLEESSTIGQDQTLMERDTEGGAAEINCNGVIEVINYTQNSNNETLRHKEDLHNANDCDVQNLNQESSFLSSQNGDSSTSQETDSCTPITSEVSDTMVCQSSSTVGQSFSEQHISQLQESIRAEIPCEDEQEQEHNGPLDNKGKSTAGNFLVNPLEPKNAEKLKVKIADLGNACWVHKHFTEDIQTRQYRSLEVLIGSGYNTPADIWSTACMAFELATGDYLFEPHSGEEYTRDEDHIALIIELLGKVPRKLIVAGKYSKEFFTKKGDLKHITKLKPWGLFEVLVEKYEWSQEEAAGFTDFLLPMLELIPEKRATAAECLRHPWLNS
# TNNI3K, sequence (Q59H18 whole entry): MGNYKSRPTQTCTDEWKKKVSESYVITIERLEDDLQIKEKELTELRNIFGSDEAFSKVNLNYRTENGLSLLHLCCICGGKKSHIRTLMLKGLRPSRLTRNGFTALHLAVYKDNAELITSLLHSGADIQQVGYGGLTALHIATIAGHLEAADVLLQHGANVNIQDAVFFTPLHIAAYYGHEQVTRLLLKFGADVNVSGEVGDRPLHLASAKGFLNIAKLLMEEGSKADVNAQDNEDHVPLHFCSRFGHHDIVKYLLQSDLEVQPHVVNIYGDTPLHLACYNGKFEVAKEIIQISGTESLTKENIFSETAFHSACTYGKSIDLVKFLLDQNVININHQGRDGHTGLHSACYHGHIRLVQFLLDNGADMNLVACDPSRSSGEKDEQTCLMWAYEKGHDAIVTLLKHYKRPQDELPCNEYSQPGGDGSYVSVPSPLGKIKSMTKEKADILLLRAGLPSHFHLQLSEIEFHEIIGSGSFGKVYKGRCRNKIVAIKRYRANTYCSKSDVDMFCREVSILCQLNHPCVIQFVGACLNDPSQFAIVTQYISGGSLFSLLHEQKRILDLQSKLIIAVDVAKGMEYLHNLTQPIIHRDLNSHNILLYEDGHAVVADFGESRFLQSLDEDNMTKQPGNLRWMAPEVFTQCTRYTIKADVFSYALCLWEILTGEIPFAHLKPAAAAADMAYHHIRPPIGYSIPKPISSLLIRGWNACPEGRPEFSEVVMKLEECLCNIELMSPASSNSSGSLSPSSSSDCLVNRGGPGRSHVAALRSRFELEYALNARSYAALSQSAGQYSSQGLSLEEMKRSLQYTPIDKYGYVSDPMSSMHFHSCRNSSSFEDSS
# LIMK2, sequence (P53671 whole entry): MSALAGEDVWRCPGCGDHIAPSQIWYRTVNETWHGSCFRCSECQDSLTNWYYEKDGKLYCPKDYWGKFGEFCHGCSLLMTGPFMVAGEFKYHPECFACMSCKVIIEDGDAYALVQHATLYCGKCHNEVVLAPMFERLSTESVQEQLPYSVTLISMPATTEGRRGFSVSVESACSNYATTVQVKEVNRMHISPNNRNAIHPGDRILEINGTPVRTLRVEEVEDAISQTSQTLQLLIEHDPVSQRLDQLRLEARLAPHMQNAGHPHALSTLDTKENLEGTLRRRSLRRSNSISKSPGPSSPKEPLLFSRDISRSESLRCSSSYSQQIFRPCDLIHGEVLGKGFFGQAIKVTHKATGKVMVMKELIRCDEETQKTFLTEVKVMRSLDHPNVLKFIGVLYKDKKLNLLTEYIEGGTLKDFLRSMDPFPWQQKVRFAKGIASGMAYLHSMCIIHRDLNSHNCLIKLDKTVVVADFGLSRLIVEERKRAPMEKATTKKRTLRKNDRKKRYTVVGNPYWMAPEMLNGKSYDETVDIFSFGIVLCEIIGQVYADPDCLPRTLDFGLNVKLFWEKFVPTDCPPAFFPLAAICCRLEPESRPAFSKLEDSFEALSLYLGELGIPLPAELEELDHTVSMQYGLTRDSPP
# T3 sequence (Q9UQ88 whole entry): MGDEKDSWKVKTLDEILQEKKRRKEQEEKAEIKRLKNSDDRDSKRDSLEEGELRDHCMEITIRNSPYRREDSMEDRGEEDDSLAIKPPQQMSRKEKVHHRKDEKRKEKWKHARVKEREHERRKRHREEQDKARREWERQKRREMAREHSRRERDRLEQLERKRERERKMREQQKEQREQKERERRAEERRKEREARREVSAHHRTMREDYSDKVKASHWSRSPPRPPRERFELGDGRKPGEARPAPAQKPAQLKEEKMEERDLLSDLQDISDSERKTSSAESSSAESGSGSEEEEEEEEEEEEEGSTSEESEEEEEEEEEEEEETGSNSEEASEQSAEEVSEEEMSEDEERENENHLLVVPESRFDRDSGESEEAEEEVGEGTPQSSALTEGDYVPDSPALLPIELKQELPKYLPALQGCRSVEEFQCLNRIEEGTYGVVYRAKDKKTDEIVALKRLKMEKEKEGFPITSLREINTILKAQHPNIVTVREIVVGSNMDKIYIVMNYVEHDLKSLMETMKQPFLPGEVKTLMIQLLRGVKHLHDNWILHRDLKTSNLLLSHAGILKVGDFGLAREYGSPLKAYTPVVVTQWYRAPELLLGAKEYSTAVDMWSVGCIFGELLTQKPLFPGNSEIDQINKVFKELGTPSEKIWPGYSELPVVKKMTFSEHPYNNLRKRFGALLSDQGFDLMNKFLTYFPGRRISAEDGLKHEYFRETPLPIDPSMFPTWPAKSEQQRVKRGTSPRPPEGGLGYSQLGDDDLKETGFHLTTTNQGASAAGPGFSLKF
# EPHA3, sequence (P29320 whole entry): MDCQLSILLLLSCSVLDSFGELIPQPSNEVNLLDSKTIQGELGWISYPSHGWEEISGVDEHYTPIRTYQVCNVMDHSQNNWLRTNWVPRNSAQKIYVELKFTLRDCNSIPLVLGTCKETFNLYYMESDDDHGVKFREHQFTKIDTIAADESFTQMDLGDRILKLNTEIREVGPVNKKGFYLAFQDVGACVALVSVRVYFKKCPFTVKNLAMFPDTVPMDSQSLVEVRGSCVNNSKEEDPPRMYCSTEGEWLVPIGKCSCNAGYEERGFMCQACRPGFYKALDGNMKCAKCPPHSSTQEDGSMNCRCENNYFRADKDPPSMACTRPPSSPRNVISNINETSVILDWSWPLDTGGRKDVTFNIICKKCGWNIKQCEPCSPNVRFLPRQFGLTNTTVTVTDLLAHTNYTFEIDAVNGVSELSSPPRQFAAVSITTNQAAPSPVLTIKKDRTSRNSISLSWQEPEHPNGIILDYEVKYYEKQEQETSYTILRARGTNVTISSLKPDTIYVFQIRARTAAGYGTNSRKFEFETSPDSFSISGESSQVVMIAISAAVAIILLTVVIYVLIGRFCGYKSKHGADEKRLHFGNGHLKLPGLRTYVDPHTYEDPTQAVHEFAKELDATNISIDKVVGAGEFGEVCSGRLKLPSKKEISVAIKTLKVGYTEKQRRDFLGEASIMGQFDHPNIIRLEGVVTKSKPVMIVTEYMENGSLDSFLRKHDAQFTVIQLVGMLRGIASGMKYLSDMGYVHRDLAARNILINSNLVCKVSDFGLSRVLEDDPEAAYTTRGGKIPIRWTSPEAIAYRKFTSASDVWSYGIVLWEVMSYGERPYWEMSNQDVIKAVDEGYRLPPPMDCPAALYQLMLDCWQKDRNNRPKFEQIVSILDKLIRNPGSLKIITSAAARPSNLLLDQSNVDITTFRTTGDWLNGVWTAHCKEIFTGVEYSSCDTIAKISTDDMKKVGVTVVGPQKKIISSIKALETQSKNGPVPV
# T5 sequence (Q15208 whole entry): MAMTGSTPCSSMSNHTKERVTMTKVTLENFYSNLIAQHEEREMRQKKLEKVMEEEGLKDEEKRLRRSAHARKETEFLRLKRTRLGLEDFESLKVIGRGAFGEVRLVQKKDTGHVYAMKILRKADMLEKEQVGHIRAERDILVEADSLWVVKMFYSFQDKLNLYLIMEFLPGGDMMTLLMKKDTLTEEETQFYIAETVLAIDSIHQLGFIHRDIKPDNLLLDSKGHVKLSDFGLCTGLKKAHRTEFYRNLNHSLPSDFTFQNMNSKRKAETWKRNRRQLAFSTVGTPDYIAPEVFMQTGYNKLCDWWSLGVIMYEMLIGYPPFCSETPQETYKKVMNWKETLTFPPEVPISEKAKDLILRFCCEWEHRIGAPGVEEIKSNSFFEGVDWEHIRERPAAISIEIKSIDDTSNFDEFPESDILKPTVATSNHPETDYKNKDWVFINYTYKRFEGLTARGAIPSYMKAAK
structure (smiles),measurement,setting,value
"COc1cc2c(cn1)N(C)C(=O)[C@@H](NC(=O)c1nc3n(n1)[C@H](c1ccccc1)CC3)CC2 [GNE684, (S)-N-((S)-7-methoxy-1-methyl-2-oxo-2,3,4,5-tetrahydro-1H-pyrido[3,4-b]azepin-3-yl)-5-phenyl-6,7-dihydro-5H-pyrrolo[1,2-b][1,2,4]triazole-2-carboxamide]",remaining binding at 10 µM,[1],73%
same,remaining binding at 10 µM,[2],100%
same,remaining binding at 10 µM,CAMK2G,100%
same,remaining binding at 10 µM,CDC2L2,98%
same,remaining binding at 10 µM,CDKL1,74%
same,remaining binding at 10 µM,EPHA3,91%
same,remaining binding at 10 µM,FES,100%
same,remaining binding at 10 µM,GSK3B,96%
same,remaining binding at 10 µM,IRAK1,96%
same,remaining binding at 10 µM,LIMK2,32%
same,remaining binding at 10 µM,MAST1,94%
same,remaining binding at 10 µM,MLK2,72%
same,remaining binding at 10 µM,NDR1,79%
same,remaining binding at 10 µM,PDPK1,91%
same,remaining binding at 10 µM,PFTK1,79%
same,remaining binding at 10 µM,[3],84%
same,remaining binding at 10 µM,SIK,100%
same,remaining binding at 10 µM,SRPK1,93%
same,remaining binding at 10 µM,TAOK3,60%
same,remaining binding at 10 µM,TNNI3K,100%
same,remaining binding at 10 µM,p38-delta,92%
